In patent publication US20050074447A1, “Treatment for diabetic microvascular and macrovascular complications” (priority 2003, published 2005):
Entries after “also recorded” stand apart in the source; their conditions may differ.

Experiments:
rat INS-1 β-cells = assay: MTS cell viability: protection of INS-1 β-cells from STZ, Example 3; assay type: cell-based; settings: for protection of INS-1 cells from STZ (relative viability): different concentrations of alpha- or gamma-tocopherol, overnight pre-incubation, then 24 hours with STZ 1 mM
Experimental: INS-1 cells were cultured overnight in 96 well culture plates in a humidified incubator at 37° C., in the presence or absence of different concentrations of alpha- or gamma-tocopherol and then in the presence of a combination of equimolar parts of gamma- and alpha-tocopherol (25 μM gamma-, 25 μM alpha-tocopherol). The cells at each condition were then cultured for an additional 24 hours either in the presence or absence of STZ (1 mM). Alpha-tocopherol and gamma-tocopherol concentrations in each well were kept the same as those used in the pre-incubation phase. Cell viability was measured with the MTS assay. Results were normalized and values were expressed relative to control (relative viability).

[1] = system: Retinal endothelial cells; assay: MTS cell viability: protection of retinal endothelial cells from 25 mM glucose and 2 mM palmitate, Example 2; assay type: cell-based, Rhesus monkey; settings: tocopherol used alone; overnight pre-incubation, then 8 hours with 25 mM glucose and 2 mM palmitate
Experimental: Retinal endothelial cells were cultured overnight in 96 well culture plates in a humidified incubator at 37° C., in the presence or absence of either 50 μM of alpha-tocopherol, 50 μM of gamma-tocopherol or 25 μM alpha-tocopherol plus 25 μM gamma-tocopherol when used in combination. The cells at each condition were then cultured for an additional 8 hours either in the presence or absence of 25 mM glucose and 2 mM palmitate. Alpha-tocopherol and gamma-tocopherol concentrations in each well were kept the same as those used in the pre-incubation phase. Cell viability was measured with the MTS assay. Results were normalized and values were expressed relative to basal glucose control (relative viability).

[2] = system: Rhesus monkey retinal endothelial cells (ATCC CRL-1780); assay: MTS cell viability of retinal endothelial cells exposed to hyperglycemia and elevated FFA (palmitate), Example 1; assay type: cell-based; settings: hyperglycemia (25 mM glucose) and elevated FFA (1 and 2 mM palmitate), overnight
Experimental: Rhesus monkey retinal endothelial cells (ATCC CRL-1780) were cultured overnight in 96 well culture plates in a humidified incubator at 37° C., under either basal (5 mM) or hyperglycemic (25 mM) conditions in the absence FFA or in with a 1 and 2 mM palmitate concentration illustrating an elevated FFA environment. At the end of the incubation period endothelial cell viability was measured with the MTS assay and results were expressed relative to the control (5 mM glucose no FFA). The results are shown in Table 1, where error bars represent standard deviations from the mean of triplicate measurements per condition. The relative viability of endothelial cells exposed to hyperglycemia and elevated FFA, as compared to the control, was about 45%. The data in Table 1 illustrates that FFA are cytotoxic to retinal endothelial cells and that their cytotoxicity is enhanced by hyperglycemia. [drawing]

In the case of `CN(N=O)C(=O)N[C@@H]1[C@@H](O)[C@H](O)[C@@H](CO)O[C@@H]1O` [STZ], the “effect of STZ on viability of INS-1 cells” value (rat INS-1 β-cells; STZ 1 mM, 24 hours) is reported as “reduced viability”.
In the case of `Cc1c(C)c2c(c(C)c1O)CC[C@@](C)(CCC[C@H](C)CCC[C@H](C)CCCC(C)C)O2` [alpha-tocopherol], the “protection of INS-1 cells from STZ (relative viability)” value (rat INS-1 β-cells) is reported as “protected from these effects in a dose dependent manner” and the “relative cell viability (relative to basal glucose control)” value [1] is reported as 40 to 50%.
In the case of `Cc1c(O)cc2c(c1C)O[C@](C)(CCC[C@H](C)CCC[C@H](C)CCCC(C)C)CC2` [gamma-tocopherol], the “protection of INS-1 cells from STZ (relative viability)” value (rat INS-1 β-cells) is reported as “protected from these effects in a dose dependent manner; also recorded: more effective than alpha-tocopherol”.
In the case of `CCCCCCCCCCCCCCCC(=O)O` [palmitate], the “relative viability of endothelial cells as compared to the control (5 mM glucose no FFA)” value [2] is reported as “about 45%”.
